This is an account of results in patent US5070089A, “Therapeutic agent for liver disease and piperazine derivatives” (Nippon Chemiphar Co., Ltd., priority 1988, dated 1991).

Data set [1] has as its system acute liver disease caused by CCl4 (Wister-strain rat). Description: Preventive action on deviation of GOT value and GPT value in vivo using model of acute liver disease caused by CCl4. As for the experimental part: CCl4 in olive oil (concentration: 50%) was orally administered to a Wister-strain rat (body weight: 170-180 g) fasted for 24 hrs., at a dose of 1 ml/kg, to cause acute liver disease. […] For control group, 1.0% methylcellulose (MC) was administered in place of the piperazine derivative. For normal group, a simple olive oil was administered in place of the CCl4 -containing olive oil. For the administration, the piperazine derivative was employed in the form of a dispersion in aqueous MC solution (concentration: 1.0%). At 24 hours after the administration of CCl4, the rat was abdominally sectioned under ether anesthesia. From the abrominal large vein, a blood was collected. The collected blood was subjected to centrifugal separation at 3,000 r.p.m. for 10 min to obtain its plasma. […] The results are set forth in Table 4 in terms of a ratio (%) of suppression (prevention) of GOT or GPT. In Table 4, "***" means 90-100%, "**" means 60-90%, and "*" means 30-60%. The ratio of suppression is calculated according to the following equation. [formula]

For data set [2], the system named is lipid peroxidation in rat hepatocyte. Description: Inhibitory action on lipid peroxidation (rat hepatocyte, TBA color formation, absorbance at 530 nm). The settings on record: 37° C., 1 hour; for Inhibition ratio (at Final Concentration of Tested Compound) 10^-4 M: final concentration 10^-4 M, 100 µM; for Inhibition ratio (at Final Concentration of Tested Compound) 10^-5 M: final concentration 10^-5 M, 10 µM. The class given is biochemical. The method, then: A hepatocyte was isolated from rat according to the method of Ui et al (Hiroshi Oka and Tadao Ui: "Isolated Cells--Experimental and Application",page 91). The determination of lipid peroxidation was performed using a died hepatocyte which had been frozen at -85° C. and stored at the temperature and which was melted when the experimental was done. […] The centrifugal tube was shaken at 37° C. for 1 hour for performing a reaction, and then placed into an ice-water bath to terminate the reaction. […] The centrifugal tube was taken out of the ice-water bath and placed in a water bath (kept at 95°-98° C.). The content of the tube was heated in the bath for 1 hour for developing color-formation. After the heating was complete, the content of the tube was cooled and subjected to centrifugal separation. The inhibitory action on lipid peroxidation of the sample was determined by measuring absorbance at 530 nm. The determined inhibitory action is expressed inhibition ratio by percent (%) calculated by the following equation: [formula] In Table 3, the number of the tested compound corresponds to the identical number set forth in Tables 1 and 2 for identifying the compounds of the invention.

Data set [3] can be described thus: Toxicity by oral administration. The format is in vivo. Particulars: even at 1,600 mg/kg by oral administration. As for the experimental part:
Further, it has been experimentally confirmed that all of piperazine derivatives of the invention tested for toxicity (Compound Nos. 4, 5, 22, 23, 32, 33, 38, 75 and 113 indicated in Tables 1 and 2) cause no death even at 1,600 mg/kg by oral administration.

[4] abbreviates: Rattus norvegicus, po, 24 h, read-out: ratio (%) of suppression (prevention) of GOT.
Setting [5] is: Rattus norvegicus, po, 24 h, read-out: ratio (%) of suppression (prevention) of GPT.
The mark [6] stands for this setting: rat, 30 mg/kg, 3 hour before oral CCl4, plasma GOT at 24 hours after CCl4, read-out: ratio (%) of suppression (prevention) of GOT.
Setting [7] is: rat, 30 mg/kg, 3 hour before oral CCl4, plasma GPT at 24 hours after CCl4, read-out: ratio (%) of suppression (prevention) of GPT.

Read-outs that look alike come from different tables or passages of the source.

Turning to `CSC(=S)N1CCN(Cc2ccccc2O)CC1` [Compound 4, Methyl 4-(2-hydroxybenzyl)-1-piperazinecarbodithioate], the inhibition in vivo at 30 mg/kg in data set [1] (setting [4]) lay in the range of 90 to 100%. Besides, in data set [1] (setting [5]), the inhibition in vivo at 30 mg/kg was 90 to 100%. In data set [2], the “Inhibition ratio (at Final Concentration of Tested Compound) 10^-4 M” value amounted to 100% and the “Inhibition ratio (at Final Concentration of Tested Compound) 10^-5 M” value is listed as 96.6%. Also, the “death in toxicity test” value in data set [3] is on record as “no death”.

`COc1ccccc1CN1CCN(C(=S)SC)CC1` [Compound 5, Methyl 4-(2-methoxybenzyl)-1-piperazinecarbodithioate]: the inhibition in vivo at 30 mg/kg in data set [1] (setting [4]) and in data set [1] (setting [5]) was 90 to 100% in each case. The “death in toxicity test” value in data set [3] is “no death”.

For the compound `CSC(=S)N1CCN(Cc2ccccc2N)CC1` [Compound 11, Methyl 4-(2-aminobenzyl)-1-piperazinecarbodithioate], in data set [1] (setting [6]), the inhibition in vivo at 30 mg/kg was in the range of 90 to 100%. Besides, in data set [1] (setting [7]), the inhibition in vivo at 30 mg/kg was 90 to 100%. Also, in data set [2], the “Inhibition ratio (at Final Concentration of Tested Compound) 10^-4 M” value was found to be 98.6% and the “Inhibition ratio (at Final Concentration of Tested Compound) 10^-5 M” value was found to be 95.5%.

On to `CSC(=S)N1CCN(Cc2ccccc2N(C)C)CC1` [Compound 13, Methyl 4-(2-dimethylaminobenzyl)-1-piperazinecarbodithioate], for which the inhibition in vivo at 30 mg/kg in data set [1] (setting [6]) lay in the range of 30 to 60%. In data set [1] (setting [7]), the inhibition in vivo at 30 mg/kg lay within 30 to 60%. For the same compound, in data set [2], the “Inhibition ratio (at Final Concentration of Tested Compound) 10^-4 M” value was 98.9% and the “Inhibition ratio (at Final Concentration of Tested Compound) 10^-5 M” value came out at 95.4%.

In the case of `CSC(=S)N1CCN(Cc2cc(O)ccc2O)CC1.Cl` [Compound 16, Methyl 4-(2,5-dihydroxybenzyl)-1-piperazinecarbodithioate hydrochloride], the inhibition in vivo at 30 mg/kg in data set [1] (setting [6]) is 90 to 100%. The inhibition in vivo at 30 mg/kg in data set [1] (setting [7]) was in the range of 90 to 100%. Besides, in data set [2], the “Inhibition ratio (at Final Concentration of Tested Compound) 10^-4 M” value came out at 73.4% and the “Inhibition ratio (at Final Concentration of Tested Compound) 10^-5 M” value is given as 69.4%.

`COc1cccc(CN2CCN(C(=S)SC)CC2)c1OC` [Compound 22, Methyl 4-(2,3-dimethoxybenzyl)-1-piperazinecarbodithioate]: the inhibition in vivo at 30 mg/kg in data set [1] (setting [4]) is 90 to 100%; in data set [1] (setting [5]) it was 60 to 90%. The “Inhibition ratio (at Final Concentration of Tested Compound) 10^-4 M” value in data set [2] was found to be 100%. Moreover, the “Inhibition ratio (at Final Concentration of Tested Compound) 10^-5 M” value in data set [2] is 92.0%. In addition, the “death in toxicity test” value in data set [3] is reported as “no death”.

As for `COc1ccc(OC)c(CN2CCN(C(=S)SC)CC2)c1` [Compound 23, Methyl 4-(2,5-dimethoxybenzyl)-1-piperazinecarbodithioate], the inhibition in vivo at 30 mg/kg in data set [1] (setting [4]) and in data set [1] (setting [5]) was 90 to 100% each time. Also, the “Inhibition ratio (at Final Concentration of Tested Compound) 10^-4 M” value in data set [2] is reported as 100%. Besides, the “Inhibition ratio (at Final Concentration of Tested Compound) 10^-5 M” value in data set [2] was found to be 60.6%. The “death in toxicity test” value in data set [3] is reported as “no death”.

For the compound `CSC(=S)N1CCN(Cc2ccc(O)c(O)c2O)CC1` [Compound 32, Methyl 4-(2,3,4-trihydroxybenzyl)-1-piperazinecarbodithioate], the inhibition in vivo at 30 mg/kg in data set [1] (setting [4]) fell in the range of 60 to 90%. The inhibition in vivo at 30 mg/kg in data set [1] (setting [5]) lay in the range of 60 to 90%. Further, in data set [2], the “Inhibition ratio (at Final Concentration of Tested Compound) 10^-4 M” value was determined as 87.8% and the “Inhibition ratio (at Final Concentration of Tested Compound) 10^-5 M” value turned out to be 87.4%. In addition, in data set [3], the “death in toxicity test” value is listed as “no death”.

For `COc1ccc(CN2CCN(C(=S)SC)CC2)c(OC)c1OC` [Compound 33, Methyl 4-(2,3,4-trimethoxybenzyl)-1-piperazinecarbodithioate], the inhibition in vivo at 30 mg/kg was 90 to 100% in data set [1] (setting [4]) and 60 to 90% in data set [1] (setting [5]). Besides, the “death in toxicity test” value in data set [3] is “no death”.

As to `COc1cc(C=O)cc(CN2CCN(C(=S)SC)CC2)c1O` [Compound 38, Methyl 4-(5-formyl-2-hydroxy-3-methoxybenzyl)-1-piperazinecarbodithioate], the inhibition in vivo at 30 mg/kg in data set [1] (setting [4]) and in data set [1] (setting [5]) was 60 to 90% each time. The “death in toxicity test” value in data set [3] is recorded as “no death”.

Consider `CCCOC(=O)c1cc(O)c(O)c(O)c1CN1CCN(C(=S)SC)CC1` [Compound 44, Methyl 4-(6-propyloxycarbonyl-2,3,4-trihydroxybenzyl)-1-piperazinecarbodithioate], for which the inhibition in vivo at 30 mg/kg in data set [1] (setting [6]) fell in the range of 90 to 100%; in data set [1] (setting [7]), 60 to 90%. The “Inhibition ratio (at Final Concentration of Tested Compound) 10^-4 M” value in data set [2] is listed as 96.6%. Also, in data set [2], the “Inhibition ratio (at Final Concentration of Tested Compound) 10^-5 M” value came to 96.0%.

Regarding `COc1c(O)c(C)c(CN2CCN(C(=S)SC)CC2)c(O)c1OC` [Compound 47, Methyl 4-(2,5-dihydroxy-3,4-dimethoxy-6-methylbenzyl)-1-piperazinecarbodithioate], the inhibition in vivo at 30 mg/kg in data set [1] (setting [6]) and in data set [1] (setting [7]) was 90 to 100% each time. For the same compound, in data set [2], the “Inhibition ratio (at Final Concentration of Tested Compound) 10^-4 M” value turned out to be 100%. Besides, in data set [2], the “Inhibition ratio (at Final Concentration of Tested Compound) 10^-5 M” value was found to be 56.1%.

As to `COc1c(OC(C)=O)c(C)c(CN2CCN(C(=S)SC)CC2)c(OC(C)=O)c1OC` [Compound 48, Methyl 4-(2,5-diacetoxy-3,4-dimethoxy-6-methylbenzyl)-1-piperazinecarbodithioate], the inhibition in vivo at 30 mg/kg in data set [1] (setting [6]) lay in the range of 60 to 90%. For the same compound, in data set [1] (setting [7]), the inhibition in vivo at 30 mg/kg was in the range of 60 to 90%. In addition, in data set [2], the “Inhibition ratio (at Final Concentration of Tested Compound) 10^-4 M” value is given as 96.2% and the “Inhibition ratio (at Final Concentration of Tested Compound) 10^-5 M” value was 97.5%.

Turning to `CSC(=S)N1CCN(CC(O)c2ccc(O)c(O)c2)CC1` (stereo not drawn) [Compound 73, Methyl 4-{2-(3,4-dihydroxyphenyl)-2-hydroxy}ethyl-1-piperazinecarbodithioate], the inhibition in vivo at 30 mg/kg in data set [1] (setting [6]) and in data set [1] (setting [7]) was 60 to 90% in each case. In data set [2], the “Inhibition ratio (at Final Concentration of Tested Compound) 10^-4 M” value is recorded as 88.4%. Besides, the “Inhibition ratio (at Final Concentration of Tested Compound) 10^-5 M” value in data set [2] turned out to be 44.5%.

As for `COc1ccc(CC(=O)N2CCN(C(=S)SC)CC2)c(OC)c1OC` [Compound 75, Methyl 4-(2,3,4-trimethoxyphenylacetyl)-1-piperazinecarbodithioate], the inhibition in vivo at 30 mg/kg in data set [1] (setting [4]) and in data set [1] (setting [5]) was 60 to 90% each time. Further, in data set [3], the “death in toxicity test” value is “no death”.

Take `CSC(=S)N1CCN(CC2=C(C)C(=O)C(C)=C(C)C2=O)CC1` [Compound 113, Methyl 4-(3,5,6-trimethyl-1,4-benzoquinonylmethyl)-1-piperazinecarbodithioate]: the inhibition in vivo at 30 mg/kg in data set [1] (setting [4]) lay within 90 to 100%; in data set [1] (setting [5]), 60 to 90%. Further, the “death in toxicity test” value in data set [3] was “no death”.
